In ChEMBL document CHEMBL3508140 (2016):

Key:
[1] = Terminal half-life of 4'-epiadriamycin following intravenous 4'-epiadriamycin at 1.27 mg.Kg-1 dose in dog; type: ADME, organism-based, Canis lupus familiaris; conditions: Beagle, plasma
[2] = Plasma clearance of 4'-epiadriamycin following intravenous 4'-epiadriamycin at 1.27 mg.Kg-1 dose in dog; type: ADME, organism-based, Canis lupus familiaris; conditions: Beagle, read-out: Clp
[3] = Recovery of epirubicin following intraperitoneal epirubicin at 4 mg.Kg-1 dose in mouse; type: ADME, organism-based, CD-1, Plasma; conditions: in vivo, ip
[4] = Recovery of epirubicin following intraperitoneal epirubicin at 4 mg.Kg-1 dose in hamster; type: ADME, organism-based, Cricetulus griseus, Plasma; conditions: chinese hamster, in vivo, ip
[5] = Mortality occurred following reference intravenous epirubicin at 1 mg.Kg-1 per week in rat; type: toxicity, organism-based, SD; conditions: in vivo
[6] = Increase in serum phospholipid level following reference intravenous epirubicin at 1 mg.Kg-1 per week in rat; type: toxicity, organism-based, SD; conditions: in vivo
[7] = Volume of distribution at steady state following epirubicin at 60 mg.m-2 dose in patients with cancer; type: ADME, organism-based; conditions: human, plasma, read-out: Vss
[8] = Cumulative urinary excretion of epirubicin and its metabolites following epirubicin at 50 mg.m-2 dose in cancer patients; type: ADME, organism-based, Urine; conditions: human, in vivo; at 50 mg/m2
[9] = Urinary excretion of epirubicin following epirubicin at 60 mg.m-2 dose in cancer patients; type: ADME, organism-based; conditions: human, urine, at 60 mg/m2, read-out: Compound recovery
[10] = Urinary excretion of epirubicin following epirubicin at 75-90 mg.m-2 dose in cancer patients; type: ADME, organism-based; conditions: human, urine; read-out: Compound recovery
[11] = Cumulative biliary excretion of epirubicin and its metabolites following epirubicin at 50 mg.m-2 dose in cancer patients; type: ADME, organism-based, Bile; conditions: human, in vivo; at 50 mg/m2
[12] = Percentage of epirubicin excreted unchanged in urine following epirubicin at 60 mg.m-2 dose in cancer patients; type: ADME, organism-based; conditions: human, at 60 mg/m2, read-out: Compound recovery
[13] = Renal clearance of epirubicin following epirubicin at 60 mg.m-2 dose in cancer patients; type: ADME, organism-based, Kidney; conditions: human, in vivo, iv, read-out: Renal clearance (converted)
[14] = Elimination of epirubicin following epirubicin at 60 mg.m-2 dose in cancer patients; type: ADME, organism-based, Plasma; conditions: human, in vivo, iv
[15] = Mean plasma clearance of epirubicin following intravenous epirubicin at 60 mg.m-2 dose in cancer patients; type: ADME, organism-based; conditions: human, read-out: CLp (converted)
[16] = Mean AUC of epirubicin following intravenous epirubicin at 60 mg.m-2 dose in cancer patients; type: ADME, organism-based; conditions: human, plasma
[17] = Half-life of terminal elimination phase of epirubicin following intravenous epirubicin at 60-90 mg.m-2 dose in cancer patients; type: ADME, organism-based; conditions: human, plasma
[18] = Volume of distribution as steady state of epirubicin following intravenous epirubicin at 60-90 mg.m-2 dose in cancer patients; type: ADME, organism-based, Plasma; conditions: human, in vivo
[19] = Plasma clearance of epirubicin following intravenous epirubicin at 30-90 mg.m-2 dose in cancer patients; type: ADME, organism-based; conditions: human, in vivo
[20] = Terminal elimination of metabolite of epirubicin following intravenous epirubicin at 30-90 mg.m-2 dose in cancer patients; type: ADME, organism-based, Plasma; conditions: human, in vivo
[21] = Initial phase half-life of epirubicin following intravenous epirubicin at 20 mg.m-2 dose in cancer patients; type: ADME, organism-based, Plasma; conditions: human, in vivo
[22] = Initial phase half-life of epirubicin following intravenous epirubicin at 75 mg.m-2 dose in cancer patients; type: ADME, organism-based, Plasma; conditions: human, in vivo
[23] = Plasma clearance of epirubicin following intravenous epirubicin at 75 mg.m-2 dose in cancer patients; type: ADME, organism-based; conditions: human, in vivo
[24] = Terminal elimination of metabolite of epirubicin following intravenous epirubicin at 40-135 mg.m-2 dose in cancer patients; type: ADME, organism-based, Plasma; conditions: human, in vivo
[25] = Initial phase half-life of epirubicin following intravenous epirubicin at 70 mg.m-2 dose in cancer patients; type: ADME, organism-based, Plasma; conditions: human, in vivo
[26] = Intermediate phase half-life of epirubicin following intravenous epirubicin at 70 mg.m-2 dose in cancer patients; type: ADME, organism-based, Plasma; conditions: human, in vivo
[27] = Plasma clearance of epirubicin following intravenous epirubicin at 40-60 mg.m-2 dose in cancer patients; type: ADME, organism-based; conditions: human, in vivo
[28] = Half-life of terminal elimination phase of epirubicin following intravenous epirubicin at 50 mg.m-2 dose in cancer patients; type: ADME, organism-based; conditions: human, plasma
[29] = Terminal elimination of metabolite of epirubicin following intravenous epirubicin at 50 mg.m-2 dose in cancer patients; type: ADME, organism-based, Plasma; conditions: human, in vivo
[30] = Half-life of terminal elimination phase of epirubicin following intravenous epirubicin at 25-35 mg.m-2 dose in cancer patients; type: ADME, organism-based; conditions: human, plasma
[31] = Volume of distribution as steady state of epirubicin following intravenous epirubicin at 25-35 mg.m-2 dose in cancer patients; type: ADME, organism-based, Plasma; conditions: human, in vivo
[32] = Half-life of terminal elimination phase of epirubicin following intravenous epirubicin at 75-90 mg.m-2 dose in cancer patients; type: ADME, organism-based; conditions: human, plasma
[33] = Volume of distribution as steady state of epirubicin following intravenous epirubicin at 75-90 mg.m-2 dose in cancer patients; type: ADME, organism-based, Plasma; conditions: human, in vivo
[34] = Half-life of epirubicin in plasma following single intravenous epirubicin at 10 mg.Kg-1 dose in female mouse bearing colon tumor; type: ADME, organism-based; conditions: BALB/c
[35] = Urinary elimination of 4'-epiadriamycin following intravenous bolus 4'-epiadriamycin at 10 mg.Kg-1 dose in rat; type: ADME, organism-based; conditions: SD, urine, read-out: Compound recovery
[36] = Terminal half-life of epirubicin following intravenous epirubicin at 1 mg.Kg-1 dose in rabbit; type: ADME, organism-based, Oryctolagus cuniculus; conditions: both, New Zealand White, plasma
[37] = Terminal half-life of epirubicin following intravenous epirubicin at 3 mg.Kg-1 dose in rabbit; type: ADME, organism-based, Oryctolagus cuniculus; conditions: both, New Zealand White, plasma
[38] = AUC of epirubicin following intravenous epirubicin at 1 mg.Kg-1 dose in rabbit; type: ADME, organism-based, Oryctolagus cuniculus; conditions: both, New Zealand White, plasma
[39] = AUC of epirubicin following intravenous epirubicin at 3 mg.Kg-1 dose in rabbit; type: ADME, organism-based, Oryctolagus cuniculus; conditions: both, New Zealand White, plasma
[40] = Volume of distribution of epirubicin following intravenous epirubicin at 1 mg.Kg-1 dose in rabbit; type: ADME, organism-based, Oryctolagus cuniculus; conditions: both, New Zealand White, plasma
[41] = Volume of distribution of epirubicin following intravenous epirubicin at 3 mg.Kg-1 dose in rabbit; type: ADME, organism-based, Oryctolagus cuniculus; conditions: both, New Zealand White, plasma
[42] = AUC of epirubicin following intravenous epirubicin emulsion at 1 mg.Kg-1 dose in rabbit; type: ADME, organism-based, Oryctolagus cuniculus; conditions: both, New Zealand White, blood
[43] = Volume of distribution of epirubicin following intravenous epirubicin solution at 1 mg.Kg-1 dose in rabbit; type: ADME, organism-based, Oryctolagus cuniculus; conditions: both, New Zealand White, blood
[44] = Mean residence time (MRT) of epirubicin following intravenous epirubicin solution at 1 mg.Kg-1 dose in rabbit; type: ADME, organism-based, Oryctolagus cuniculus; conditions: both, New Zealand White, blood, read-out: Mean residence time (converted)
[45] = Terminal half-life of epirubicin following intravenous epirubicin emulsion at 1 mg.Kg-1 dose in rabbit; type: ADME, organism-based, Oryctolagus cuniculus; conditions: both, New Zealand White, blood
[46] = AUC of epirubicin following intrahepatic epirubicin solution at 1 mg.Kg-1 dose in rabbit; type: ADME, organism-based, Oryctolagus cuniculus; conditions: both, New Zealand White, blood
[47] = Volume of distribution of epirubicin following intrahepatic epirubicin emulsion at 1 mg.Kg-1 dose in rabbit; type: ADME, organism-based, Oryctolagus cuniculus; conditions: both, New Zealand White, blood
[48] = Mean residence time (MRT) of epirubicin following intrahepatic epirubicin solution at 1 mg.Kg-1 dose in rabbit; type: ADME, organism-based, Oryctolagus cuniculus; conditions: both, New Zealand White, blood, read-out: Mean residence time (converted)
[49] = Mean residence time (MRT) of epirubicin following intrahepatic epirubicin emulsion at 1 mg.Kg-1 dose in rabbit; type: ADME, organism-based, Oryctolagus cuniculus; conditions: both, New Zealand White, blood, read-out: Mean residence time (converted)
[50] = Mean AUC (8-48 h) of epirubicin following intravenous epirubicin at 1 mg.Kg-1 dose administered approximately 25 minute prior to epirubicin once weekly for four weeks in dog; type: ADME, organism-based, Canis lupus familiaris; conditions: Beagle, plasma

COc1cccc2c1C(=O)c1c(O)c3c(c(O)c1C2=O)C[C@@](O)(C(=O)CO)C[C@@H]3O[C@H]1C[C@H](N)[C@@H](O)[C@H](C)O1.Cl [EPIRUBICIN HYDROCHLORIDE]
half-life [1]: 7.1 min
clearance [2]: 589 mL/min
Compound recovery [3]: 49 10^-9M
Compound recovery [4]: 83 10^-9M
Mortality [5]: OUTCOME = Observed, N_AFFECTED = 5
PHOSLPD_CHANGE [6]: OUTCOME = Increased
Vd [7]: 32 L/kg
Radiolabel recovery [8]: 10.5%
dose excreted at 168 h [9]: 6.4%
dose excreted at 48 h [10]: 5.9%
Radiolabel recovery [11]: 34.9%
dose excreted at 7 Day [12]: 6.4%
CL renal [13]: 71.7 mL/min
Elimination [14]: OUTCOME = Observed
clearance [15]: 1250 mL/min
AUC [16]: 1500 ng·h/mL
half-life [17]: 40 h
Vss [18]: 1844 L.m-2
CLp [19]: 48 L.h-1.m-2
t1/2 [20]: 32.2 h
t1/2 [21]: 3.4 min
t1/2 [22]: 5.4 min
CLp [23]: 29 L.h-1.m-2
t1/2 [24]: 18.1 h
t1/2 [25]: 3.15 min
t1/2 [26]: 1.25 h
CLp [27]: 50.1 L.h-1.m-2
half-life [28]: 18.3 h
t1/2 [29]: 21.1 h
half-life [30]: 29.3 h
Vss [31]: 925 L.m-2
half-life [32]: 38 h
Vss [33]: 1432 L.m-2
half-life [34]: 15.6 h
dose excreted [35]: 2.43%
half-life [36]: 22.9 h
half-life [37]: 21.3 h
AUC [38]: 420 ng·h/mL
AUC [39]: 620 ng·h/mL
Vd [40]: 368 L/kg
Vd [41]: 587 L/kg
AUC [42]: 134 ng·h/mL
Vd [43]: 30.9 L/kg
MRT [44]: 1.26 h
half-life [45]: 0.628 h
AUC [46]: 65.5 ng·h/mL
Vd [47]: 137 L/kg
MRT [48]: 1.38 h
MRT [49]: 1.11 h
AUC [50]: 233 ng·h/mL
